From patent US20250057963A1, “DISCOVERY OF PIPERLONGUMINE AS A NOVEL E3 LIGASE LIGAND” (University of Florida Research Foundation, Incorporated, priority 2021, published 2025) come the findings set out here.

Each structure is given as a SMILES string.

Experiment [1] relates to LNCaP, 22RV1, PC3 and DU145 prostate cancer cell lines. Kind of experiment: Viability (MTS) assay in prostate cancer cell lines. The class given is cell-based, Human. The conditions noted are these: all four cell lines LNCaP, 22RV1, PC3, DU145; MTS, 72 h treatment. As to the method:
All the cell lines were maintained in a humidified incubator at 37° C. and 5% CO2. […] The data were expressed as average % cell viability and fitted in non-linear regression curves using GraphPad Prism 9 (GraphPad Software, La Jolla, CA, USA).

The target in experiment [2] is CDK9 (Homo sapiens, UniProt P50750). Kind of experiment: 955-induced CDK9 degradation in H1299 cells after KEAP1, TRIP12 or TRAF6 knockdown/knockout and KEAP1 rescue. In kind it is cell-based. Details: endogenous in cells; host or cells: MOLT4, 293T, K562, NCI-H1299, LNCaP. As to the method: Cells were collected and lysed in RIPA lysis buffer (Cat. #BP-115DG, Boston Bio Products, Ashland, MA, USA) supplemented with protease and phosphatase inhibitor cocktails (Cat. #PPC1010, Sigma-Aldrich, St. Louis, MO, USA). Protein samples were made and immunoblotting was performed as described previously (Khan et al., 2019; Lv et al., 2021). Antibodies purchased from Cell Signaling Technologies (CST) and the dilutions are as follows: Biotin (Cat. No. 5571S, 1:1000), PARP (Cat. No. 9542S, 1:1000), c-Myc (Cat. No. 5605S, 1:1000), MCL1 (Cat. No. 5453S, 1:1000), and ALK (Cat. No. 3791S, 1:1000). KEAP1 antibody was purchased from Proteintech (Cat. No. 10503-2-AP, 1:1000). CDK9 antibody was purchased from Santa Cruz (Cat. No. sc-13130, 1:500). V5-tag antibody was purchased from Bethyl (Cat. No. A190-120P, 1:1000). j-actin antibody was purchased from MP Biomedicals (Cat. No. 8691001, 1:20 000).
To knockout KEAP1, two lentiviral CRISPR knockout plasmids targeting human KEAP1 gene were purchased from Abm (Cat. No. 254911110595). Packaging 293T cells were transfected with KEAP1 single guide RNA (sgRNA) and helper vectors (pMD2.G and psPAX2; Addgene plasmid #12259 and 12260) using Lipofectamine 3000 reagent (Cat. No. L3000015, Thermal Fisher). Medium containing lentiviral particles and 8 µg/mL polybrene (Sigma-Aldrich) was used to infect H1299 cells. Infected cells were selected in medium containing […] puromycin. The sgRNA target sequences are as follows: sg1: […]; sg2: […]. Single clones were selected by serial dilution.
KEAP1-sg1 knockout H1299 (4×10^5) cells were transfected with or without plasmid expressing Halo-KEAP1 (Addgene, a gift from Yimon Aye, plasmid #58240) using Lipofectamine 3000 reagent (Cat. No. L3000015, Thermal Fisher). After 24 h, the cells in each well of 6-well plate were divided into two wells and cultured for additional 16 h.

The test system of experiment [3] is MOLT4 cells. Kind of experiment: Viability (MTS) assay in MOLT4 cells. In kind it is cell-based, Human. The conditions noted are these: 72 h treatment. The protocol: Human T-ALL MOLT4 (Cat. No. CRL-1582), K562 (Cat. No. CCL-243), NCI-H1299 (Cat. No. CRL-5803), NCI-H2228 (Cat. No. CRL-5935), LNCaP (Cat. No. CRL-1740), 22RV1 (Cat. No. CRL-2505), PC3 (Cat. No. CRL-1435), DU145 (Cat. No. HTB-81), and epithelial kidney HEK 293T (293T, Cat. No. ACS-4500) cell lines were recently purchased from American Type Culture Collection (ATCC, Manassas, VA, USA). MOLT4, K562, NCI—H-1299, NCI-H2228, LNCap, and 22RV 1 cell lines were cultured in RPMI 1640 medium (Cat No. 22400-089, Thermo Fisher Scientific, Waltham, MA, USA) supplemented with 10% (v/v) heat-inactivated fetal bovine serum (FBS, Cat. No. S11150H, Atlanta Biologicals, Flowery Branch, GA, USA), 100 U/mL penicillin and 100 pig/mL streptomycin (Pen-Strep, Cat. No. 15140122, Thermo Fisher Scientific). PC3 cells were cultured in complete F—12K medium (Kaighn's modification of Ham's F-12 medium, Cat. No. 30-2004, ATCC) supplemented with 10% (v/v) heat-inactivated FBS, 100 U/mL penicillin, and 100 μg/mL streptomycin. […]
Viability (MTS) assays in various cancer cells followed the methods described in our previous report (Khan et al., 2019). The data were expressed as average % cell viability and fitted in non-linear regression curves using GraphPad Prism 9 (GraphPad Software, La Jolla, CA, USA).

Sequence of CDK9 (P50750 whole entry): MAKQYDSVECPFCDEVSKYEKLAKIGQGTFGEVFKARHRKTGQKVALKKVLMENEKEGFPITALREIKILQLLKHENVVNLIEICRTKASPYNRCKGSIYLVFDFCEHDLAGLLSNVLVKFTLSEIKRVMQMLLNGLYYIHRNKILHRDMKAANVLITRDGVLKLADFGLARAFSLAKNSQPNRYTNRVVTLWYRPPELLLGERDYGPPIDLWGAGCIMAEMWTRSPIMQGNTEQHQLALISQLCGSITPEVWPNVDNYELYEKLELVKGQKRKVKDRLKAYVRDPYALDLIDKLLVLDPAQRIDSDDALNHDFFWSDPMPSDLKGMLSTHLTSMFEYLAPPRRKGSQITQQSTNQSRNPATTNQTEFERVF

On to `COc1cc(/C=C/C(=O)N2CCC=CC2=O)cc(OC)c1OCCN1CCN(C(=O)CN2CCC(C(=O)Nc3ncc(SCc4ncc(C(C)(C)C)o4)s3)CC2)CC1` [compound 955, (E)-N-(5-(((5-(tert-butyl)oxazol-2-yl)methyl)thio)thiazol-2-yl)-1-(2-(4-(2-(2,6-dimethoxy-4-(3-oxo-3-(6-oxo-3,6-dihydropyridin-1(2H)-yl)prop-1-en-1-yl)phenoxy)ethyl)piperazin-1-yl)-2-oxoethyl)piperidine-4-carboxamide], for which the “EC50, anti-proliferation” value in experiment [1] is recorded as “single digital nM range”. Further, the “955-induced CDK9 degradation after KEAP1 knock down/out (siRNA, CRISPR-Cas9)” value in experiment [2] (H1299 cells) is “blocked after depleting KEAP1”. Besides, the “955-induced CDK9 degradation after TRIP12 or TRAF6 siRNA knockdown” value in experiment [2] (H1299 cells, 6 h) was “had no effect”. Further, the “955-induced CDK9 degradation after ectopic Halo-tagged KEAP1 in KEAP1 stable knockout cells” value in experiment [2] (KEAP1-sg1 knockout H1299 cells, 955 for 6 h) is on record as “rescued CDK9 degradation”. Further, the “potency to kill MOLT4 cells compared with SNS-032” value in experiment [3] was “more potent to kill MOLT4 cells compared with SNS-032”.
